Test results taken from PubChem BioAssay (NCI).
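Growth conditions: 96-well plates. Treatment: test compound, 48 hours, 5 concentrations. Analysis: linear interpolation between bracketing concentrations; unreached endpoints set to highest concentration. At the TGI there is no net growth.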

Columns and labels:
Assay in all cases: growth of human tumour cells (NCI), 48 h
786-0 renal = tested on: 786-0 renal
A498 renal = tested on: A498 renal
A549 NSCLC = tested on: A549 NSCLC
ACHN renal = tested on: ACHN renal
BT-549 breast = tested on: BT-549 breast
CAKI-1 renal = tested on: CAKI-1 renal
CCRF-CEM leukemia = tested on: CCRF-CEM leukemia
COLO 205 colon = tested on: COLO 205 colon
DU-145 prostate = tested on: DU-145 prostate
EKVX NSCLC = tested on: EKVX NSCLC
HCC-2998 colon = tested on: HCC-2998 colon
HCT-116 colon = tested on: HCT-116 colon
HCT-15 colon = tested on: HCT-15 colon
HL-60(TB) leukemia = tested on: HL-60(TB) leukemia
HOP-62 NSCLC = tested on: HOP-62 NSCLC
HOP-92 NSCLC = tested on: HOP-92 NSCLC
HS 578T breast = tested on: HS 578T breast
HT29 colon = tested on: HT29 colon
IGROV1 ovarian = tested on: IGROV1 ovarian
K-562 leukemia = tested on: K-562 leukemia
KM12 colon = tested on: KM12 colon
LOX IMVI melanoma = tested on: LOX IMVI melanoma
M14 melanoma = tested on: M14 melanoma
MCF7 breast = tested on: MCF7 breast
MDA-MB-231 breast = tested on: MDA-MB-231 breast
MDA-MB-435 = tested on: MDA-MB-435
MDA-N = tested on: MDA-N
MOLT-4 leukemia = tested on: MOLT-4 leukemia
NCI-H226 lung = tested on: NCI-H226 lung
NCI-H23 lung = tested on: NCI-H23 lung
NCI-H460 lung = tested on: NCI-H460 lung
NCI-H522 lung = tested on: NCI-H522 lung
NCI/ADR-RES ovarian = tested on: NCI/ADR-RES ovarian
OVCAR-3 ovarian = tested on: OVCAR-3 ovarian
OVCAR-4 ovarian = tested on: OVCAR-4 ovarian
OVCAR-5 ovarian = tested on: OVCAR-5 ovarian
OVCAR-8 ovarian = tested on: OVCAR-8 ovarian
PC-3 prostate = tested on: PC-3 prostate
RPMI-8226 leukemia = tested on: RPMI-8226 leukemia
RXF 393 renal = tested on: RXF 393 renal
SF-268 CNS = tested on: SF-268 CNS
SF-295 CNS = tested on: SF-295 CNS
SF-539 CNS = tested on: SF-539 CNS
SK-MEL-2 melanoma = tested on: SK-MEL-2 melanoma
SK-MEL-28 melanoma = tested on: SK-MEL-28 melanoma
SK-MEL-5 melanoma = tested on: SK-MEL-5 melanoma
SN12C renal = tested on: SN12C renal
SNB-19 CNS = tested on: SNB-19 CNS
SR leukemia = tested on: SR leukemia
SW-620 colon = tested on: SW-620 colon
T-47D breast = tested on: T-47D breast
TK-10 renal = tested on: TK-10 renal
U251 CNS = tested on: U251 CNS
UACC-257 melanoma = tested on: UACC-257 melanoma
UACC-62 melanoma = tested on: UACC-62 melanoma
UO-31 renal = tested on: UO-31 renal

Measured: TGI

O=C(OCc1ccccc1)N1CCNCCNCC1
> 100 µM: 786-0 renal | A498 renal | A549 NSCLC | ACHN renal | BT-549 breast | CAKI-1 renal | CCRF-CEM leukemia | COLO 205 colon | DU-145 prostate | EKVX NSCLC | HCC-2998 colon | HCT-116 colon | HCT-15 colon | HL-60(TB) leukemia | HOP-62 NSCLC | HOP-92 NSCLC | HS 578T breast | HT29 colon | IGROV1 ovarian | K-562 leukemia | KM12 colon | LOX IMVI melanoma | M14 melanoma | MCF7 breast | MDA-MB-231 breast | MDA-MB-435 | MDA-N | MOLT-4 leukemia | NCI-H226 lung | NCI-H23 lung | NCI-H460 lung | NCI-H522 lung | NCI/ADR-RES ovarian | OVCAR-3 ovarian | OVCAR-4 ovarian | OVCAR-5 ovarian | OVCAR-8 ovarian | PC-3 prostate | RPMI-8226 leukemia | RXF 393 renal | SF-268 CNS | SF-295 CNS | SF-539 CNS | SK-MEL-2 melanoma | SK-MEL-28 melanoma | SK-MEL-5 melanoma | SN12C renal | SNB-19 CNS | SR leukemia | SW-620 colon | T-47D breast | TK-10 renal | U251 CNS | UACC-257 melanoma | UACC-62 melanoma | UO-31 renal
